Results on 53 molecules are retold here after ChEMBL document CHEMBL1201862, “PubChem BioAssay data set” (2004).

Data set [1] concerns Streptococcus. In words: Group A Streptococcus viability loss, dose response, counter-screen for streptokinase expression inhibitor project, luminescence, BacTiterGlo (AID 1915).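 Further: potency for reduction of bacterial viability or growth.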 The format is functional, organism-based. For orientation: The purpose of a counterscreen is to sort out artefacts and off-target activity.
Data set [2] has as its system Streptococcus sp. 'group A'. The experiment in a line: growth inhibition of control SK(-) GAS strain, dose response, counter-screen for streptokinase expression inhibitor project, luminescence, kanamycin, BacTiterGlo, confirmation (AID 1900). It is filed as functional, organism-based. Particulars: read-out: EC50.
Data set [3] deals with Cytochrome P450 2C19 (Homo sapiens, UniProt P33261). The experiment in a line: Cytochrome panel assay with activity outcomes. Panel member name: p450-cyp2c19 Compounds with AC50 equal or less than 10 uM are considered active. It is filed as functional.
Data set [4] is described as follows: cytotoxicity toward NIH3T3 fibroblasts, dose response, counter-screen, cell-based, ATP luminescence, mouse fibroblasts (AID 2010).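 Further: cells exposed to compound for about 90 hours before reading.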 It is filed as functional.
The nature of data set [5]: inhibitors of intracellular T. cruzi replication, confirmation, NIH3T3 host cells, beta-gal luminescence (AID 2044).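 Further: intracellular parasites grown in NIH/3T3 mouse fibroblasts as host cells; luminescent beta-galactosidase reporter signal from transgenic T. cruzi replicating inside host cells; inhibitors lower the luminescence signal.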 It is filed as functional, cell-based.
The target in data set [6] is Cytochrome P450 3A4 (Homo sapiens, UniProt P08684).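 Further: CYP3A4 tested as one member of a cytochrome P450 panel screen.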
Data set [7] in a line: Luminescence Cell-Based Dose Retest to Confirm Inhibitors of Cancer Stem Cells. [Related pubchem assays (depositor defined):AID2717, AID2721]. Particulars: Homo sapiens. The format is functional, Homo sapiens.
Data set [8] is described as follows: Luminescence Cell-Based Dose Response HTS to Identify Inhibitors of 5'UTR Stem-Loop Driven Prion Protein mRNA Translation in H4 Neuroglioblastoma Cells. [Related pubchem assays: 1827 (Project Summary), 1813 (Primary HTS)]. It is filed as functional.
Data set [9] is described as follows: inhibitors of firefly luciferase expression or activity, dose response, H4 neuroglioma cells, luminescence (AID 1990). It is filed as functional, cell-based.
Data set [10] can be described thus: inhibitors of SNCA 5'UTR-driven reporter translation, confirmation, H4 neuroglioma cells, luminescence (AID 1988). The format is functional, cell-based.

SMILES strings stand for the structures. Where “and” joins values, the source holds several entries; their conditions need not be identical. Identical values can stand only once. Calls of active or inactive are those of the source.

Chain of Cytochrome P450 3A4 (P08684 whole entry): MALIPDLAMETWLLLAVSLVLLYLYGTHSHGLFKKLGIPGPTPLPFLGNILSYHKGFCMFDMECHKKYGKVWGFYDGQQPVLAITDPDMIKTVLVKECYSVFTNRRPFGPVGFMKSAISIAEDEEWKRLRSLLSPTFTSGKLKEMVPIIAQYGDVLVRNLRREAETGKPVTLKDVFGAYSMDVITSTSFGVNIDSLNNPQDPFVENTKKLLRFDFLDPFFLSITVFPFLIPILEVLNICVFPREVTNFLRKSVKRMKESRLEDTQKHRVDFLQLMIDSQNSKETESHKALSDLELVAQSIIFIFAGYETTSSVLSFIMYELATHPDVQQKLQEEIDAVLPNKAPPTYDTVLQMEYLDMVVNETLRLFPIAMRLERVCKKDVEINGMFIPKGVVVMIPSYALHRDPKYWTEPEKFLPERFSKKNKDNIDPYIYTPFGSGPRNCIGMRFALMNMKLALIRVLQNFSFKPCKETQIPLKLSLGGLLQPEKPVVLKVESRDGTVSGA
Chain of Cytochrome P450 2C19 (P33261 whole entry): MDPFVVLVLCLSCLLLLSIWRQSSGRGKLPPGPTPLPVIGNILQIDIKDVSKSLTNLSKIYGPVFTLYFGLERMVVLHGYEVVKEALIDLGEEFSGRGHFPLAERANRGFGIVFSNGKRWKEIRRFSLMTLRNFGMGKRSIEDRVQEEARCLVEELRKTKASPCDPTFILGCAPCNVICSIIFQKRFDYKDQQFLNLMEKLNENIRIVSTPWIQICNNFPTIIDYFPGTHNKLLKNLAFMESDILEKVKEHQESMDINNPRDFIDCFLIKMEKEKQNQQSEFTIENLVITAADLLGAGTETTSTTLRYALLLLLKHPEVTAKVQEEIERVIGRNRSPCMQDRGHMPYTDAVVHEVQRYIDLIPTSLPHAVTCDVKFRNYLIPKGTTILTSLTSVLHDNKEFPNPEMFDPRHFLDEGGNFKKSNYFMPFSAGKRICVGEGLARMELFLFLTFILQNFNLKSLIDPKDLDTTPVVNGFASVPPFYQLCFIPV

In general, EC50 refers to the concentration needed to bring the measured effect to its halfway point. For the molecule `Oc1nc2ccc(Cl)cc2c(-c2ccccc2)c1SC(=S)N1CCOCC1`, the EC50 was 1.3 µM (active) in data set [1] and 0.827 µM (active) in data set [2].
The AC50 is the midpoint of the concentration-response curve, whichever way the signal moves. `COC(=O)Nc1nc2cc(SC(C)C)ccc2[nH]1`: the AC50 in data set [3] (read-out: AC50) was 10 µM (inconclusive).
On to `C=C1SC(Nc2c(C)cccc2C)=NC12CCCCC2`, for which the EC50 in data set [4] was 4.83 µM (active); in [5], 0.795 µM (active).
Consider `CCCC(C(=O)OCCN(CC)CC)(c1ccccc1)c1ccccc1` [PROADIFEN], for which the AC50 in [3] (read-out: AC50) was 7.94 µM (inconclusive) and 3.98 µM (inconclusive).
Regarding `CC(C)CN1CC[C@@]2(CCCN(C(=O)c3ccco3)C2)C1`, the AC50 in data set [6] was 12.6 µM (inconclusive).
Consider `O=c1c2c3c(sc2nc(NCCO)n1Cc1ccco1)CCCCC3`, for which the AC50 in data set [7] is 1.8 µM (active).
As to `Cc1cc2c(c(=O)n1C1CC1)C(c1cccc(Cl)c1)C(C#N)=C(N)O2` (centres undefined), the EC50 in data set [8], in [9] and in [10] was > 120 µM (not active) in each case.
On to `CC1(C)Cc2c(sc3c2c(=N)n(Cc2ccco2)c(=O)n3Cc2ccc(Cl)cc2)CO1`, for which the EC50 in data set [8] was > 120 µM (not active); in data set [9], 14.2 µM (active); in [10] it was 13.8 µM (active).
On the same counts, the results for `O=C(NC1CCCCC1)Oc1cc2oc(=O)sc2cc1Br` are > 120 µM (not active), > 120 µM (not active) and > 120 µM (not active).
In the case of `COCC(=O)N1CCC[C@@]2(CCN(C(=O)Nc3cccc(F)c3)C2)C1`, the concentration at half-maximal activity (AC50) in [6] was 25.1 µM (inconclusive).
Consider `CCOC(=O)C1=C(c2ccccc2)NC(SCC(=O)Nc2ccc(C)cc2)=C(C#N)C1c1ccco1` (centres undefined), for which the EC50 in data set [4] was > 60 µM (not active); in [5] it was 2.91 µM (active).
Take `N#CCSc1nc2c(c(=O)n1Cc1ccco1)C1(CCCC1)Cc1ccccc1-2`: the AC50 in data set [7] is 0.686 µM (active).
For the molecule `CCC(C)NS(=O)(=O)c1ccc(S(=O)(=O)N(CCc2ccc(OC)c(OC)c2)Cc2cccs2)cc1` (centres undefined), the EC50 in data set [4] was > 60 µM (not active); in data set [5] it was 1.72 µM (active).
Regarding `COc1ccc(OC)c(C(c2nnnn2C(C)(C)C)N2CCc3ccccc3C2)c1` (centres undefined), the EC50 in [4] is 5.8 µM (active); in [5], 2.77 µM (active).
On the same counts, the results for `Cc1c(-c2nc(N)nc(Nc3ccc(F)cc3)n2)oc2ccccc12` are 13.4 µM (active) and 2.76 µM (active).
In the case of `O=C(NCc1ccco1)c1cc(-c2ccc3c(c2)OCO3)on1`, in data set [7], the AC50 was 1.14 µM (active).
With `CCOc1ccc(N(C)Cc2cc(=O)oc3ccc(OC)cc23)cc1`, the values for the EC50 in data set [4] and in [5] were > 60 µM (not active) and 0.798 µM (active), respectively.
As to `O=C1NC[C@@H](Cc2cccc3ccccc23)N(CC2(c3ccccc3)CC2)C1=O`, the EC50 in data set [8], in [9] and in [10] was > 120 µM (not active) each time.
`COc1ccc(-n2nc(C(=O)NCC(=O)N3CCN(Cc4ccc5c(c4)OCO5)CC3)c3ccccc3c2=O)cc1OC`: the EC50 in [8] is > 120 µM (not active); in data set [9] it was 21.3 µM (active); in data set [10] it was > 120 µM (not active).
Take `CN(C)c1ccc(C2CNC(c3ccc(Cl)c([N+](=O)[O-])c3)c3[nH]c4ccccc4c32)cc1` (centres undefined): the EC50 in data set [4] is > 60 µM (not active); in [5], 1.88 µM (active).
Take `CN([C@@H](Cc1ccc(OS(=O)(=O)c2cccc3cnccc23)cc1)C(=O)N1CCN(c2ccccc2)CC1)S(=O)(=O)c1cccc2cnccc12`: the EC50 in data set [4] was 11.2 µM (active); in [5] it was 0.4 µM (active).
On to `Cc1ccc(NC(=O)CN2CCC(NC(=O)Cc3ccccc3)CC2)cc1C`, for which the AC50 in [6] is 14.1 µM (inconclusive).
Regarding `Nc1ccc(Oc2ccccc2-c2ccccc2)cc1`, the EC50 in [8] is 9.75 µM (active); in data set [9] it was 2.08 µM (active); in data set [10] it was 5.17 µM (active).
As for `COCCNc1nc(-c2ccccc2CN(C)C)nc2ccccc12`, in data set [6], the AC50 was 15.8 µM (inconclusive).
For `O=C(CSc1[nH]cnc2ncnc1-2)Nc1nnc(SCc2ccc(Cl)c(Cl)c2)s1`, the AC50 in [7] was 7.23 µM (active).
For the molecule `CCOc1ccccc1-c1nc(-c2ccc(NC(=O)Cc3ccccc3OC)cc2)no1`, the EC50 in data set [4] is 10.2 µM (active); in data set [5], 1.21 µM (active).
As to `Cn1cnc2c(NCc3ccccc3)nc(NCCO)nc21` [OLOMOUCINE], the AC50 in [6] is 15.8 µM (inconclusive).
On to `CCCc1cc2c(n1Cc1ccc(C)cc1)C(C)C1CN(C(=O)c3ccccc3)C(C)(C(=O)OC)C21` (centres undefined), for which the AC50 in data set [3] (read-out: AC50) is 25.1 µM (inconclusive).
Consider `O=C(CSC(=S)N1CCCCC1)c1ccccc1`, for which the values for the EC50 in [8] and in data set [10] were > 60 µM (not active) and 10.8 µM (active), respectively.
On to `CSc1nc2c(c(C(F)(F)F)n1)CC(C)CC2` (centres undefined), for which, in [3] (read-out: AC50), the AC50 was 39.8 µM (inconclusive).
Turning to `Cc1ccc(C)c(NC(S)=NN=C(S)Nc2ccc(C(C)C)cc2)c1`, the values for the EC50 in [4] and in data set [5] were > 60 µM (not active) and 2.69 µM (active), respectively.
For `COc1cccc(CN2CCCC(CNC(=O)c3ccc(F)cc3)C2)c1OC` (centres undefined) the same measures were > 60 µM (inconclusive) and 0.704 µM (active).
With `COc1ccc(Oc2ncc3nc(-c4ccc(Cl)cc4)c(=O)n(C)c3n2)cc1`, the half-maximal activity concentration (AC50) in data set [6] is 5.01 µM (inconclusive).
Regarding `CCCCN(CC)CCCNC(=O)c1cn(-c2ccc(OC)cc2)c(=O)c2ccccc12`, the figures for the EC50 in data set [4] and in data set [5] were > 60 µM (not active) and 0.496 µM (active), respectively.
As for `CCOC(=O)Nc1ccc(OCc2nnc3c4ccccc4c(C)nn23)cc1`, the figures for the EC50 in data set [1] and in data set [2] were 0.676 µM (active) and < 0.06 µM (active), respectively.
As for `O=c1c(-c2cccc(F)c2)nc2cncnc2n1Cc1ccccc1`, the AC50 in data set [6] was 10 µM (inconclusive).
Turning to `NC(=O)CC(NC(=O)Cc1cccc2ccccc12)c1ccc(NCc2ccc(F)cc2)c([N+](=O)[O-])c1` (centres undefined), the AC50 in [7] was 5.46 µM (active).
As to `O=C(c1ccco1)N1CCC2(CC1)CN(c1cccc(-c3ccccc3)c1)C2`, the AC50 in data set [3] (read-out: AC50) was 3.98 µM (inconclusive).
For the molecule `COc1ccc(C(=O)C[n+]2nc(CNc3ccc(Br)cc3)n3c2CCCCC3)cc1`, the EC50 in data set [4] was > 60 µM (not active); in data set [5], 0.898 µM (active).
In the case of `C/C(CCC(=O)OC[C@@H]1O[C@H](C#Cc2ccccc2)C=C[C@@H]1Oc1ccc(C)cc1)=N/OC[C@@H](O)[C@H]1O[C@H]2OC(C)(C)O[C@H]2[C@@H]1O`, the AC50 in data set [3] (read-out: AC50) was 6.31 µM (inconclusive).
Take `Cc1ccc(S(=O)(=O)c2c(N)n(/N=C/c3ccco3)c3nc4ccccc4nc23)cc1`: the EC50 is > 60 µM (not active) in [4] and 1.8 µM (active) in data set [5].
`Cc1ccc(Cl)cc1NC(=S)N/N=C/c1cccc2ccccc12`: the AC50 in [7] is 0.167 µM (active). The EC50 in [4] is 0.425 µM (active); in [5], 2.97 µM (active).
Regarding `N#CCCn1c(=O)c(CCc2ccccc2)nc2cnc(Nc3ccccc3)nc21`, in [6], the AC50 is 1 µM (inconclusive).
As to `CCN(CC)c1nc(Nc2ccc(Cl)cc2)nc(OCC#N)n1`, the EC50 in [8] was 14.6 µM (active); in [9] it was 15 µM (active); in data set [10], 16 µM (active).
In the case of `Cc1cc(C)cc(NC(=O)CSc2nc3c(oc4ccccc43)c(=O)n2-c2ccccc2)c1`, the EC50 in data set [4] was > 60 µM (inconclusive); in [5], 1.26 µM (active).
On to `CC(C)(CN1CCN(Cc2ccccc2)CC1)NS(=O)(=O)c1ccccc1`, for which the AC50 in [7] was 12.7 µM (active).
Take `CC(=O)c1c(/N=C/N(C)C)nc(C)nc1-c1ccccc1`: the AC50 in [3] (read-out: AC50) was 25.1 µM (inconclusive).
Turning to `Cc1ccc2nc(O)c(C(c3nnnn3C(C)(C)C)N(Cc3ccco3)CC3CCCO3)cc2c1` (centres undefined), the figures for the EC50 in [4] and in data set [5] were > 60 µM (not active) and 3.14 µM (active), respectively.
On the same counts, the results for `Cc1nn(S(=O)(=O)c2ccc([N+](=O)[O-])cc2)c(C)c1Sc1ccccc1` are > 60 µM (not active) and 1.16 µM (active).
Take `Cn1c(=O)c2c(nc(NCCNc3nc4c(c(=O)n(C)c(=O)n4C)n3C)n2C)n(C)c1=O`: the AC50 entry in [3] was “inconclusive”.
Regarding `CO/C(O)=C1/C(C)=Nc2ncnn2C1c1cccnc1` (centres undefined), the AC50 in data set [6] is 39.8 µM (inconclusive).
`COCCn1c(=O)c(-c2cccc(Cl)c2)nc2cncnc21`: in data set [6], the AC50 is 15.8 µM (inconclusive).
For `CCc1c(C)c(C#N)c2nc3ccccc3n2c1N1CCN(c2cc(C)ccn2)CC1`, the AC50 in data set [3] (read-out: AC50) is 10 µM (inconclusive).
